One test concerns the target PHD2181-417 (Homo sapiens (Human), UniProt Q9GZT9). The test is described as follows: PHD enzymatic assay ([14C]-succinic acid production). It counts as biochemical. To be noted: purified PHD2181-417, HIF-1α peptide substrate, 30 min pre-incubation; average of results. Here is the method: Expression and Purification of PHD2181-417
The human PHD2 expression construct containing amino acids 181-417 of GenBank Accession ID NM_022051 was cloned into a pBAD vector (Invitrogen), incorporating both an N-terminal histidine tag and a Smt3-tag, both of which are cleaved by Ulp1. Protein production was achieved by expression in BL21 cells grown in Terrific Broth containing 100 μg/ml ampicillin. Cell cultures were inoculated at 37° C. and grown to an OD600 of 0.8. Cultures were induced with 0.1% arabinose and grown overnight at 20° C. with continuous shaking at 225 rpm. Cells were then harvested by centrifugation and stored at −80° C. Cell pellets were suspended in Buffer A (50 mM Tris-HCl pH 7.2, 100 mM NaCl, 100 mM L-arginine, 1 mM TCEP, 0.05% (w/v) NP-40, 50 mM imidazole) followed by the addition of lysozyme and benzonase. Cells were lysed by sonication and the lysate was cleared by centrifugation (15,000 rpm, 90 min, 4° C.). The protein was purified by nickel affinity chromatography using a HisTrap Crude FF column (GE Healthcare). Samples were eluted in Buffer A with a 50-200 mM imidazole gradient. Cleavage of the Smt tag with Ulp1 protease was achieved via overnight incubation with dialyzing against Buffer A. The PHD2181-417 sample was then passed over a second HisTrap Crude FF column (GE Healthcare) to remove uncleaved protein. The flow-through was then dialyzed into 50 mM MES pH 6.0, 1 mM TCEP, 5 mM NaCl for ion exchange chromatography on a HiTrap SP Cation Exchange column (GE Healthcare). The PHD2181-417 protein was eluted with a 0-0.2 M NaCl gradient. Fractions were pooled for further purification by size exclusion chromatography over a Superdex 75 Size Exclusion Column (GE Healthcare). Final protein was concentrated to 4 mg/ml and dialyzed in 10 mM PIPES pH 7.0, 100 mM NaCl, 0.5 mM TCEP.
(10 μM, California Peptide Research Inc., Napa, Calif.), and [5-^14C]-2-oxoglutaric acid (50 mCi/mmol, Moravek Chemicals, Brea, Calif.) in reaction buffer (40 mM Tris-HCl, pH 7.5, 0.4 mg/ml catalase, 0.5 mM DTT, 1 mM ascorbate) for 10 minutes. Compounds were pre-incubated for 30 min before starting the reaction (all test compounds were dissolved at 10 mM in 100% DMSO (w/v) and were tested with final compound concentrations at 100 μM in 1% DMSO (w/v)). The reaction was stopped by addition of 50 μl of 70 mM H3PO4 and 50 μl of 500 mM NaH2PO4, pH 3.2. Detection of [^14C]-succinic acid was achieved by separating from [5-^14C]-2-oxoglutaric acid by incubating the reaction mixture with 100 μl of 0.16 M DNP prepared in 30% perchloric acid. Next, 50 μl of unlabeled 20 mM 2-oxoglutaric acid/20 mM succinic acid, serving as carrier for the radioactivity, was added to the mixture, and was allowed to proceed for 30 minutes at room temperature. The reaction was then incubated with 50 μl of 1 M 2-oxoglutaric acid for 30 additional minutes at room temperature to precipitate the excess DNP. The reaction was then centrifuged at 2800×g for 10 minutes at room temperature to separate [^14C]-succinic acid in the supernatant from the precipitated [^14C]-dinitrophenylhydrazone. Fractions of the supernatant (400 μI) were counted using a beta counter (Beckman Coulter, Fullerton, Calif.). Inhibition of PHD2181-417 activity was measured as a decrease in succinic acid production. The IC50 values were estimated by fitting the data to a three-parameter logistic function using GraphPad Prism, version 4.02 (Graph Pad Software, San Diego, Calif.).

The subject of test [1] is Erythropoietin secretion, Hep-3B cells. Briefly: Cellular assay: EPO secretion in Hep-3B cells. To be noted: Homo sapiens, Hep3B, 100 μM compound, 24 hours, percent of EPO secretion relative to assay control compound 7-[(4-Chloro-phenyl)-(5-methyl-isoxazol-3-ylamino)-methyl]-quinolin-8-ol, read-out: Cellular % EPO Stimulation. It counts as cell-based. The protocol: Hep-3B cells (ATCC, Manassas, Va.) were plated in 96-well plates at 20,000 cells per well in 100 μl of DMEM containing 10% fetal bovine serum, 1% non-essential amino acids, 50 IU/mL of penicillin and 50 μg/mL of streptomycin (all cell culture reagents from Invitrogen, Carlsbad, Calif.). Twenty-four hours after plating, compounds were added and incubated for an additional 24 hours. All compounds were tested with final compound concentrations at 100 μM. Fifty microliters of the supernatant was then transferred to a human Hypoxia assay kit (Meso-Scale Discovery, Gaithersburg, Md.). Erythropoietin in the supernatant was detected according to the manufacturer's instructions as follows. EPO detection plates were blocked with 3% BSA in PBS overnight and 50 μl of the supernatant was incubated at room temperature in an orbital shaker for 2 h. Twenty-five microliters of 0.5 μg/ml anti-EPO detection antibody was added for 2 hours at room temperature in an orbital shaker. After 3 washes in PBS, 150 μl of 1× read buffer is added and the plate is then read on the MSD SECTOR instrument. Data was analyzed by determining the percent of EPO secretion in the presence of 100 μM compound relative to an assay control compound, 7-[(4-Chloro-phenyl)-(5-methyl-isoxazol-3-ylamino)-methyl]-quinolin-8-ol.

SMILES strings stand for the structures.

PHD2181-417, sequence (Q9GZT9 181-417): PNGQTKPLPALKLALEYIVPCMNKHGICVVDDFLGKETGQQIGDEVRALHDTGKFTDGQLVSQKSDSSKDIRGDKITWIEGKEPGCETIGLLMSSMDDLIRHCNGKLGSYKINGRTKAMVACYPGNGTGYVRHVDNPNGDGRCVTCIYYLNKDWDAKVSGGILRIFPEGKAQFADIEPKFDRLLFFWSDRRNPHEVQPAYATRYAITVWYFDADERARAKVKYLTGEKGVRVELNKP

Take `CCCNc1nc(-n2cc(C(=O)O)cn2)nc2cc(F)c(Oc3c(C)cccc3C)cc12` [Example 8, 1-[6-(2,6-Dimethyl-phenoxy)-7-fluoro-4-propylamino-quinazolin-2-yl]-1H-pyrazole-4-carboxylic acid]: the “Enzyme pIC50” value at PHD2181-417 amounted to 7.2. The activation at 100 µM in test [1] is 59%.
`CCN(CC)CCNc1nc(-n2cc(C(=O)O)cn2)nc2cc(F)c(Oc3c(C)cccc3C)cc12` [Example 10, 1-[4-(2-Diethylamino-ethylamino)-6-(2,6-dimethyl-phenoxy)-7-fluoro-quinazolin-2-yl]-1H-pyrazole-4-carboxylic acid]: the “Enzyme pIC50” value on PHD2181-417 was 5.9. The activation at 100 µM in test [1] amounted to 13%.
The like results for `CCCCN(CCCC)c1nc(-n2cc(C(=O)O)cn2)nc2cc(F)c(Oc3c(C)cccc3C)cc12` [Example 11, 1-[6-(2,6-Dimethyl-phenoxy)-4-dibutylamino-7-fluoro-quinazolin-2-yl]-1H-pyrazole-4-carboxylic acid] were, in that order, 7.1 and 9%.
As to `CCCN(CCC)c1nc(-n2cc(C(=O)O)cn2)nc2cc(F)c(Oc3c(C)cccc3C)cc12` [Example 12, 1-[6-(2,6-Dimethyl-phenoxy)-4-dipropylamino-7-fluoro-quinazolin-2-yl]-1H-pyrazole-4-carboxylic acid], the “Enzyme pIC50” value on PHD2181-417 was found to be 7.4. Also, the activation at 100 µM in test [1] amounted to 9%.
For the molecule `Cc1cccc(C)c1Oc1cc2c(NCC3CCCCC3)nc(-n3cc(C(=O)O)cn3)nc2cc1F` [Example 13, 1-(4-((Cyclohexylmethyl)amino)-6-(2,6-dimethylphenoxy)-7-fluoroquinazolin-2-yl)-1H-pyrazole-4-carboxylic acid], at PHD2181-417, the “Enzyme pIC50” value is reported as 6.9. In addition, in test [1], the activation at 100 µM amounted to 10%.
Regarding `Cc1cccc(C)c1Oc1cc2c(NC3CC3)nc(-n3cc(C(=O)O)cn3)nc2cc1F` [Example 14, 1-((4-Cyclopropylamino)-6-(2,6-dimethylphenoxy)-7-fluoroquinazolin-2-yl)-1H-pyrazole-4-carboxylic acid], on PHD2181-417, the “Enzyme pIC50” value came out at 7.1. In addition, in test [1], the activation at 100 µM was 86%.
For the molecule `Cc1cccc(C)c1Oc1cc2c(NC3CCOCC3)nc(-n3cc(C(=O)O)cn3)nc2cc1F` [Example 16, 1-(6-(2,6-Dimethylphenoxy)-7-fluoro-4-((tetrahydro-2H-pyran-4-yl)amino)quinazolin-2-yl)-1H-pyrazole-4-carboxylic acid], the “Enzyme pIC50” value at PHD2181-417 turned out to be 7.1. In addition, the activation at 100 µM in test [1] is 71%.
On to `Cc1cccc(C)c1Oc1cc2c(N3CCOCC3)nc(-n3cc(C(=O)O)cn3)nc2cc1F` [Example 20, 1-(6-(2,6-Dimethylphenoxy)-7-fluoro-4-morpholinoquinazolin-2-yl)-1H-pyrazole-4-carboxylic acid], for which the “Enzyme pIC50” value at PHD2181-417 came out at 7.0. For the same molecule, the activation at 100 µM in test [1] was determined as 54%.
On to `CNc1nc(-n2cc(C(=O)O)cn2)nc2ccc(C3CCCCC3)cc12` [Example 22, 1-(6-Cyclohexyl-4-methylamino-quinazolin-2-yl)-1H-pyrazole-4-carboxylic acid], for which the “Enzyme pIC50” value at PHD2181-417 is listed as 7.1. Moreover, the activation at 100 µM in test [1] is 48%.
For the molecule `Nc1nc(-n2cc(C(=O)O)cn2)nc2ccc(C3CCCCC3)cc12` [Example 24, 1-(4-Amino-6-cyclohexylquinazolin-2-yl)-1H-pyrazole-4-carboxylic acid], the “Enzyme pIC50” value at PHD2181-417 was 7.5. Also, the activation at 100 µM in test [1] turned out to be 36%.
Consider `O=C(O)c1cnn(-c2nc(N3CCCC3)c3cc(C4CCCCC4)ccc3n2)c1` [Example 25, 1-(6-Cyclohexyl-4-(pyrrolidin-1-yl)quinazolin-2-yl)-1H-pyrazole-4-carboxylic acid], for which the “Enzyme pIC50” value at PHD2181-417 is 6.4. Besides, the activation at 100 µM in test [1] stood at 39%.
The like results for `O=C(O)c1cnn(-c2nc(N3CCCCC3)c3cc(C4CCCCC4)ccc3n2)c1` [Example 26, 1-(6-Cyclohexyl-4-(piperidin-1-yl)quinazolin-2-yl)-1H-pyrazole-4-carboxylic acid] were, in that order, 7.1 and 20%.
